Consider four compounds from article PMC10660337, “Mutate and Conjugate: A Method to Enable Rapid In-Cell Target Validation” (ACS Chemical Biology, 2023).

Several values for one entry are separate records, joined by “and”; a condition that tells them apart may be missing. Identical values can stand only once. Bounds are passed on as bounds.

For one experiment, the system named is BRD4(1). Also on record: method as in PMID 36378954. The note with it: cited from earlier work.
Experiment [1] has as its target T1, BRD4(1)^L94C (Homo sapiens, UniProt O60885, L94C).
T1 construct: Characterization of His6-BRD4(1)L94C; made in house; host or cells: E. coli BL21 (DE3)
Kind of experiment: Protein LCMS labeling assay 2 (diverse reactive fragment screen). Format: binding. Conditions: 1 μM protein, 4 °C, 24 h. On the procedure:
To investigate whether screening of an unbiased set of covalent fragments could identify ligands for BRD4(1)^L94C, we evaluated 250 previously published cysteine-reactive compounds, comprising 138 acrylamide- and 112 chloroacetamide-functionalized reactive fragments with molecular weights ranging from 152 to 300 Da.[44] Due to the higher throughput of this screening assay, the conditions varied compared to “labeling assay 1”. In this case, 1 μM BRD4(1)^L94C was incubated with either a chloroacetamide fragment (50 μM) or an acrylamide fragment (200 μM) at 4 °C for 24 h (referred to as “labeling assay 2”). Samples were then analyzed using protein LCMS, where a positive hit was classified as a single protein labeling event with a mass shift corresponding to the mass of the fragment of ±2 Da and a labeled peak of >20% intensity. Of the 250 diverse reactive compounds screened against BRD4(1)^L94C, only one chloroacetamide and one acrylamide fragment were classified as hits (Figures 5A and S10). […]
Experiments were performed in a protein LCMS assay buffer, with 10 µM protein, and 50 µM of the desired compound with a final DMSO concentration of 0.5% (Table S16). […] Data was analysed and processed using MassLynx. […] Covalent labeling was calculated using intensities of the unlabeled and labeled protein (Equation 1). […]

The target in experiment [2] is T1, BRD4(1)^L94C. In words: AlphaScreen H4_1–20(KAc)4 peptide displacement. It counts as binding. The note with it: mean of three ± s.e.m. The procedure:
Under these conditions, all three fragments displaced the peptide from BRD4(1)^L94C, which is consistent with the fragments binding to BRD4(1)^L94C in the expected location (Table 2). […] The longer the mutant protein and electrophile are incubated together, the more time there is for a covalent interaction to occur. […]
(§1) Dose response AlphaScreen™
(§2) The peptide (Table S17) was supplied at >95% purity by GenScript and was stored as 1 mM stocks in […]
(§3) Table S17. Amino acid sequences of peptides used in AlphaScreen™.
(§4) Peptide Amino Acid Sequence […]
(§5) The assay buffer (Table S18, pH 7.6) was filtered through a 0.22 μm filter before use. The buffer is stored at 4 °C as a 5× solution without bovine serum albumin (BSA), which was added on the day of use. The compounds, proteins, and peptides were dispensed into a ProxiPlate-384 Plus (Perkin Elmer) using a Thermo-Fisher electronic multi-channel pipette. For the incubation steps, the plates were sealed, shaken for 10 seconds at 600 rpm on a plate oscillator, and incubated at room temperature in darkness for 30 min or 3.5 h. Ni2+ chelate acceptor and streptavidin donor beads were prepared as a mixture in a 1:300 dilution (0.007 mg/mL final assay concentration, added to the plates and incubated for a further 30 min at room temperature. Plates were read using a SynergyTM 2 MultiMode Microplate Reader using the inbuilt AlphaScreen™ 384 ProxiPlate function: excitation 680 nm, 0.18 sec; emission […]
(§6) Table S18. Composition of assay buffer used in AlphaScreen™ experiments, adjusted to pH 7.6 using an aqueous NaOH […]
(§7) Reagent Composition Mass (mg) for 50 mL
(§8) 50 mM DMSO stock solutions of the compounds were serially diluted, and dispensed into wells (5 μL).
(§9) The protein-peptide mixes (7 μL) for each combination were prepared following the specified final assay concentration (Table S19), and dispensed into wells. Assay beads (8 μL) were added to attain a final assay volume of 20 μL. Dose response curves were obtained for each compound in triplicate, with serial 1:2 dilutions. Data was processed by fitting a four-parameter equation (Equation 2) to calculate IC50 values using Prism software.
(§10) Table S19. Final assay concentrations of each peptide-protein combination.
(§11) Protein Peptide Protein FAC (nM) Peptide FAC (nM)
(§12) Response = Bottom + Top − Bottom
Background: Alpha assays give light when donor and acceptor beads are brought close together.

The target in experiment [3] is T2, BRD4(1)^WT (Homo sapiens, UniProt O60885).
T2 construct: Characterization of His6-BRD4(1)WT; made in house; host or cells: E. coli BL21 (DE3)
Kind of experiment: AlphaScreen H4_1–20(KAc)4 peptide displacement. Conditions: 4 h incubation at RT; mean of three ± s.e.m. It counts as binding. The procedure:
as §1, §2, §3, §4, §5, §6, §7, §8, §9, §10, §11, §12

In experiment [4] the target is T1, BRD4(1)^L94C. Kind of experiment: Protein LCMS labeling assay 1. It counts as binding. Conditions: 50 μM compound, 10 µM protein, 37 °C, mean of three ± s.e.m., ND = not detectable. The procedure: (§13) The resulting library of 22 fragments was screened for BRD4(1)^L94C binding at a concentration of 50 μM using a protein LCMS assay (referred to as “labeling assay 1”). […] To assess the selectivity of the fragments for the labeling of C94, hits were also screened against BRD4(1)^WT under the same conditions. […] The acrylamide-based fragment, 12, labeled 98% of BRD4(1)^L94C after 4 h. While 95% of the protein was labeled once, 3% of the protein was labeled twice (Figure 5D). […] Fragment 14, designed by appending a β-dimethylaminomethyl acrylamide to the structure of 12, led to 74% of singly labeled BRD4(1)^L94C after 4 h with no labeling of BRD4(1)^WT observed (Table 1 and Figure 5E). […] However, only 9.9% of labeled BRD4(1)^L94C was observed, substantially lower than the 56% labeling observed for the corresponding 3-methyl regioisomer 10 (Table 1). […]
(§14) Assays were performed in 1.5 mL Eppendorf tubes at 37 °C and gently shaken, unless otherwise stated.
(§15) Experiments were performed in a protein LCMS assay buffer, with 10 µM protein, and 50 µM of the desired compound with a final DMSO concentration of 0.5% (Table S16). Time points were taken at 0, 1 and 4 h, unless otherwise stated, where a 20 µL sample of the reaction mix was taken, diluted with 100 µL Milli-Q water, and flash frozen. Samples were thawed immediately prior to LCMS analysis on a Waters Xevo G2-S system (Waters) fitted with a ProSwift™ RP-2H PSDVB Reversed Phase HPLC Column (Thermofisher). Data was analysed and processed using MassLynx. The total ion chromatograms (TIC) were extracted (region containing protein) and the summed scans were deconvoluted (using MaxEnt). Covalent labeling was calculated using intensities of the unlabeled and labeled protein (Equation 1). Figures were made using GraphPad Prism 7.0.
(§16) Table S16. Buffer composition for protein LCMS.
(§17) Buffer Reagent Composition Amount per 1 L
(§18) Protein LCMS Assay Buffer HEPES 25 mM 6.0 g
(§19) Protein Labelling = Intensity of Labelled Peak × 100

The target in experiment [5] is T2, BRD4(1)^WT. In words: Protein LCMS labeling assay 1. It counts as binding. Conditions: 50 μM compound, 10 µM protein, 37 °C, 4 h; mean of three ± s.e.m.; ND = not detectable. The procedure:
Before introducing a Cys mutant into the first bromodomain of BRD4 [BRD4(1)], we wanted to rule out the possibility that the native Cys residues C125 and C136 (Figures 2A and S1), would react with electrophilic fragments. To test this, we incubated two KAc-mimicking methylisoxazole-based reactive fragments (1 and 2, Figure 2C) with purified BRD4(1)^WT.
as §13, §14, §15, §16, §17, §18, §19

Experiment [6] addresses T1, BRD4(1)^L94C. Kind of experiment: Fluorescent labeling of purified protein (CuAAC with TAMRA-PEG3-azide, in-gel fluorescence). The note with it: 50 μM probe, 10 μM protein, 4 h, 37 °C, then CuAAC 1 h. It counts as binding. The procedure: (§20) When 28, 29, 30, and 42 were incubated with either purified BRD4(1)^L94C or BRD4(1)^WT and subjected to a copper(I)-catalyzed alkyne–azide click reaction (CuAAC) reaction with the fluorescent TAMRA-PEG3-azide dye, all clickable probes labeled the mutant protein and could be visualized using fluorescence imaging of a gel (Figure 6).
Figure 6 Clickable probes 28, 29, 30, and 42 covalently label BRD4(1)^L94C and undergo a subsequent CuAAC reaction with TAMRA-PEG3 azide to fluorescently label the protein, as shown by in-gel fluorescence imaging. Compounds 28, 29, 30, 41, and 42 (50 μM) were incubated with purified BRD4(1)^L94C or BRD4(1)^WT (10 μM) for 4 h at 37 °C, followed by CuAAC reaction with TAMRA-PEG3 azide for 1 h and separation of components by SDS-PAGE. For all compounds other than 30, only labeling of BRD4(1)^L94C was observed. […]
Fluorescent labeling of purified proteins
Assays were performed in 1.5 mL Eppendorf tubes at 37 °C, and gently shaken, unless otherwise stated.
The desired click probe (50 µM) was incubated with protein (10 µM) in protein LCMS buffer for 4 h, after which TAMRA-PEG3-Azide (200 µM), TCEP·HCl (1 mM), TBTA (100 µM), and CuSO4 (1 mM) were added and incubated for a further 1 h at room temperature in the dark. A 25 µL sample of the […]
reaction mix was taken and 8 µL of Lamelli buffer added, and the samples denatured by heating at 95 °C for 10 min. Samples were separated by gel electrophoresis on NuPAGE™ 4–12%, Bis-Tris precast polyacrylamide gels (Thermofisher). Following electrophoresis, gels were stained for 15 min with InstantBlueTM Coomasie® stain (Abcam), destained, and imaged using Bio-rad molecular imager.
Bio-rad Image Lab 6.1 was used to process the data. […]
InstantBlueTM Coomasie® stain (Abcam), destained, and imaged using Bio-rad molecular imager. […]
MEM media. Cells were then harvested and lysed using the previously described protocol above. […]

In experiment [7] the target is T2, BRD4(1)^WT. The description is as above. It counts as binding. Conditions: 50 μM probe, 10 μM protein, 4 h, 37 °C, then CuAAC 1 h. The procedure: as §20
Figure 6 Clickable probes 28, 29, 30, and 42 covalently label BRD4(1)^L94C and undergo a subsequent CuAAC reaction with TAMRA-PEG3 azide to fluorescently label the protein, as shown by in-gel fluorescence imaging. Compounds 28, 29, 30, 41, and 42 (50 μM) were incubated with purified BRD4(1)^L94C or BRD4(1)^WT (10 μM) for 4 h at 37 °C, followed by CuAAC reaction with TAMRA-PEG3 azide for 1 h and separation of components by SDS-PAGE. For all compounds other than 30, only labeling of BRD4(1)^L94C was observed.
as §8
The protein-peptide mixes (7 μL) for each combination were prepared following the specified final assay concentration (Table S19), and dispensed into wells. […]
Assays were performed in 1.5 mL Eppendorf tubes at room temperature, in the dark, and gently shaken, unless otherwise stated. […] Data was analysed and processed using MassLynx. […]
Gels were imaged for fluorescence using Bio-rad molecular imager and then stained for 15 min with […]

`Cc1noc(C)c1-c1ccccc1` [4-phenyl-3,5-dimethylisoxazole]: the IC50 in the experiment with BRD4(1) was 50 µM.

Consider `O=C(CCl)Nc1nc(-c2cccs2)cs1` [Compound 26], for which, on BRD4(1)^L94C [1] (chloroacetamide fragment 50 μM), the “Labeling of BRD4(1)^L94C, labeling assay 2” value was determined as 27%.

As for `C=CC(=O)Nc1ccc(N2CCCC2=O)c(OC)c1` [Compound 27], the IC50 was 15.5 ± 3.2 µM on BRD4(1)^L94C [2] (IC50 (μM) L94C 1 h, 1 h incubation at RT); 2.48 µM and 2.5 µM at BRD4(1)^L94C [2] (IC50 (μM) L94C 4 h, 4 h incubation at RT); over 100 µM on BRD4(1)^WT [3]. Further, the “Labeling of BRD4(1)^L94C, labeling assay 2” value at BRD4(1)^L94C [1] (acrylamide fragment 200 μM) was found to be 89%. Further, the “Labeled Protein (%) L94C 1 h” value on BRD4(1)^L94C [4] (1 h) was found to be 17 ± 1.0%. Moreover, the “Labeled Protein (%) L94C 4 h” value on BRD4(1)^L94C [4] is 61% and 61 ± 2.5%. For the same compound, the “Labeled Protein (%) WT 4 h” value at BRD4(1)^WT [5] is “no covalent binding”.

Take `C#CCN(C)C/C=C/C(=O)Nc1ccc(N2CCCC2=O)c(OC)c1` [Compound 41]: on BRD4(1)^L94C [6], the “Labeling of purified BRD4(1)^L94C, in-gel fluorescence” value was “no labeling”. For the same compound, the “Labeling of purified BRD4(1)^WT, in-gel fluorescence” value on BRD4(1)^WT [7] is “no labeling”. In addition, the “Labeled Protein (%) L94C 4 h” value at BRD4(1)^L94C [4] is 2% and 2.0 ± 0.0%.

Broadly, the IC50 is the point on the concentration scale where inhibition reaches its midpoint.
